Data as given in patent US20160009693A1, “HERBICIDAL COMPOUNDS” (SYNGENTA LIMITED, priority 2013, published 2016).

Key:
Type in all cases: in vivo
Conditions in all cases: applied at 1000 g/h, evaluated after 13 days
Solanum nigrum (SOLNI) [1] = test: Herbicidal glasshouse test, post-emergence, SOLNI
Setaria faberi (SETFA) [2] = test: Herbicidal glasshouse test, pre-emergence, SETFA
[3] = test system: Ipomoea hederacea (IPOHE); test: Herbicidal glasshouse test, post-emergence, IPOHE
Solanum nigrum (SOLNI) [4] = test: Herbicidal glasshouse test, pre-emergence, SOLNI
Procedure, shortened: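 This pre-emergence glasshouse herbicide test used Solanum nigrum sown in standard soil. One day after sowing, pots were sprayed with the compound in acetone/water (50:50) with 0.5% Tween 20. They were then grown at 24/16° C., with 14 hours light and 65% humidity, and watered twice daily. Percentage damage was scored after 13 days on a five point scale, where 5=80-100% and 1=0-19%.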

[5] = test system: Ipomoea hederacea (IPOHE); test: Herbicidal glasshouse test, pre-emergence, IPOHE
[6] = test system: Amaranthus retoflexus (AMARE); test: Herbicidal glasshouse test, post-emergence, AMARE
Procedure, shortened: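 This post-emergence glasshouse test used AMARE plants raised in standard soil for 8 days under controlled conditions (24/16° C. day/night, 14 hours light, 65% humidity). Foliage was sprayed with formulated compound in acetone/water (50:50) containing 0.5% Tween 20. Plants were then watered twice daily, and after 13 days percentage damage was rated on a five point scale.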

[7] = test system: Echinochloa crus-galli (ECHCG); test: Herbicidal glasshouse test, pre-emergence, ECHCG
Procedure, shortened: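 In this pre-emergence glasshouse test, ECHCG seeds sown in pots of standard soil were sprayed one day after sowing with the test material in acetone/water (50:50) containing 0.5% Tween 20. Plants were kept at 24/16° C., 14 hours light, 65% humidity, and watered twice daily. Percentage damage was rated after 13 days on a 1–5 scale.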

[8] = test system: Alopecurus myosuroides (ALOMY); test: Herbicidal glasshouse test, pre-emergence, ALOMY
[9] = test system: Amaranthus retoflexus (AMARE); test: Herbicidal glasshouse test, pre-emergence, AMARE
Procedure, shortened: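 This pre-emergence glasshouse herbicide test used Amaranthus retoflexus sown in standard soil. After one day of cultivation, an aqueous spray made from the technical ingredient in 50:50 acetone/water with 0.5% Tween 20 was applied. Pots stayed at 24/16° C., 14 hours light, 65% humidity, with twice-daily watering. Damage was rated on a five point scale (1=0-19% up to 5=80-100%).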

Setaria faberi (SETFA) [10] = test: Herbicidal glasshouse test, post-emergence, SETFA
Procedure, shortened: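 This post-emergence glasshouse herbicide test used potted Setaria faberi. Plants were cultivated for 8 days under controlled conditions (24/16° C. day/night, 14 hours light, 65% humidity) and then treated with an aqueous spray made from an acetone/water (50:50) solution containing 0.5% Tween 20. After 13 days of further growth with twice-daily watering, damage was rated on a five point scale (5=80-100%; 1=0-19%).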

[11] = test system: Echinochloa crus-galli (ECHCG); test: Herbicidal glasshouse test, post-emergence, ECHCG
Procedure, shortened: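 In this post-emergence glasshouse test, barnyard grass (ECHCG) was cultivated for 8 days under controlled conditions (24/16° C. day/night, 14 hours light, 65% humidity). It was then sprayed with an aqueous solution of the technical compound in acetone / water (50:50) with 0.5% Tween 20. Plants were kept under the same conditions and watered twice daily. After 13 days, percentage damage was rated on a five point scale (5=80-100%; 1=0-19%).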

[12] = test system: Alopecurus myosuroides (ALOMY); test: Herbicidal glasshouse test, post-emergence, ALOMY

| Compound | POST Application SOLNI, percentage damage (five point scale) (Solanum nigrum (SOLNI) [1]) | PRE Application SETFA, percentage damage (five point scale) (Setaria faberi (SETFA) [2]) | POST Application IPOHE, percentage damage (five point scale) [3] | PRE Application SOLNI, percentage damage (five point scale) (Solanum nigrum (SOLNI) [4]) | PRE Application IPOHE, percentage damage (five point scale) [5] | POST Application AMARE, percentage damage (five point scale) [6] | PRE Application ECHCG, percentage damage (five point scale) [7] | PRE Application ALOMY, percentage damage (five point scale) [8] | PRE Application AMARE, percentage damage (five point scale) [9] | POST Application SETFA, percentage damage (five point scale) (Setaria faberi (SETFA) [10]) | POST Application ECHCG, percentage damage (five point scale) [11] | POST Application ALOMY, percentage damage (five point scale) [12] |
| --- | --- | --- | --- | --- | --- | --- | --- | --- | --- | --- | --- | --- |
| C=CCn1nc(C(=O)Nc2nnnn2C)c(=O)n(-c2cccc(F)c2)c1=O [Compound 1.007] | 5 (5=80-100%) | 1 (1=0-19%) | 5 (5=80-100%) | 5 (5=80-100%) | 5 (5=80-100%) | 5 (5=80-100%) | 5 (5=80-100%) | 2 (2=20-39%) | 5 (5=80-100%) | 5 (5=80-100%) | 5 (5=80-100%) | 5 (5=80-100%) |
| Cn1nnnc1NC(=O)c1nn(C)c(=O)n(Cc2ccccc2C(F)(F)F)c1=O [Compound 1.062] | 5 (5=80-100%) | 5 (5=80-100%) | 5 (5=80-100%) | 5 (5=80-100%) | 5 (5=80-100%) | 5 (5=80-100%) | 5 (5=80-100%) | 5 (5=80-100%) | 5 (5=80-100%) | 5 (5=80-100%) | 5 (5=80-100%) | 5 (5=80-100%) |
| CCCCn1c(=O)c(C(=O)Nc2nnnn2C)cn(C)c1=O [Compound 4.004] | 5 (5=80-100%) | 1 (1=0-19%) | 4 (4=60-79%) | 2 (2=20-39%) | 2 (2=20-39%) | 5 (5=80-100%) | 1 (1=0-19%) | 1 (1=0-19%) | 5 (5=80-100%) | 1 (1=0-19%) | 1 (1=0-19%) | 1 (1=0-19%) |
| Cc1ccccc1-n1c(=O)c(C(=O)Nc2nnnn2C)nn(C)c1=O [Compound 1.018] | 5 (5=80-100%) | 5 (5=80-100%) | 5 (5=80-100%) | 5 (5=80-100%) | 5 (5=80-100%) | 5 (5=80-100%) | 5 (5=80-100%) | 5 (5=80-100%) | 5 (5=80-100%) | 5 (5=80-100%) | 5 (5=80-100%) | 5 (5=80-100%) |
| Cn1nnnc1NC(=O)c1nn(C)c(=O)n(Cc2cccc(F)c2)c1=O [Compound 1.063] | 5 (5=80-100%) | 4 (4=60-79%) | 5 (5=80-100%) | 5 (5=80-100%) | 5 (5=80-100%) | 5 (5=80-100%) | 5 (5=80-100%) | 5 (5=80-100%) | 5 (5=80-100%) | 4 (4=60-79%) | 5 (5=80-100%) | 5 (5=80-100%) |
| Cc1cccc(-n2c(=O)c(C(=O)Nc3nnnn3C)nn(C)c2=O)c1 [Compound 1.053] | 5 (5=80-100%) | 3 (3=40-59%) | 5 (5=80-100%) | 5 (5=80-100%) | 5 (5=80-100%) | 5 (5=80-100%) | 5 (5=80-100%) | 5 (5=80-100%) | 5 (5=80-100%) | 3 (3=40-59%) | 4 (4=60-79%) | 5 (5=80-100%) |
| Cc1cc(-n2c(=O)c(C(=O)Nc3nnnn3C)nn(C)c2=O)ccc1F [Compound 1.037] | 5 (5=80-100%) | 5 (5=80-100%) | 5 (5=80-100%) | 5 (5=80-100%) | 5 (5=80-100%) | 5 (5=80-100%) | 5 (5=80-100%) | 5 (5=80-100%) | 5 (5=80-100%) | 5 (5=80-100%) | 5 (5=80-100%) | 5 (5=80-100%) |
| Cn1nnnc1NC(=O)c1nn(C)c(=O)n(-c2ccc(C(C)(C)C)cc2)c1=O [Compound 1.040] | 5 (5=80-100%) | 5 (5=80-100%) | 4 (4=60-79%) | 5 (5=80-100%) | 3 (3=40-59%) | 5 (5=80-100%) | 5 (5=80-100%) | 5 (5=80-100%) | 5 (5=80-100%) | 5 (5=80-100%) | 5 (5=80-100%) | 4 (4=60-79%) |
